# A melting point compilation (Tetko et al.; mined from patent text by program, amines drawn as free bases though some values may be those of a salt)
row,melting point,SMILES
1,115 to 117 °C,CCCOc1ccc(S(=O)(=O)N2CCN(CC)CC2)cc1-c1nc2cc3ncn(Cc4cccc(F)c4)c3cc2c(=O)[nH]1
2,104 to 106 °C,Fc1ccc(C(CN2CCOCC2)=C2SCCCS2)cc1
3,244 to 246 °C,COCC(=O)Nc1cccc2c1C(=O)N(C1(C)CCC(=O)NC1=O)C2=O (configuration not stated)
4,114 °C,CCOC(=O)C(=O)Nc1cc(C)ccc1[N+](=O)[O-]
5,252 to 254 °C,CC(=O)Nc1ccc(NC(=O)NC23CC4CC(CC(C4)C2)C3)cn1
6,111 °C,CCOC(=O)C1CCc2cc(NS(C)(=O)=O)ccc2O1 (configuration not stated)
7,135 to 150 °C,NC(=O)CN1C(=O)[C@@H](NC(=O)[C@@H]2CCC(=O)C2)[C@H](c2ccccc2)Sc2ccccc21
8,156 to 157 °C,Cc1ccn2c(=O)c(CCN3CCN(c4ccc(Cl)cc4)CC3)c(C)nc2c1
9,71 to 72 °C,CCc1c(Cl)cnc(N)c1F
10,125 to 127 °C,COc1cnc(CSc2nc3cc(OC(F)(F)C(F)F)ccc3[nH]2)cc1OC
11,205 to 207 °C,COc1ccc(C(=O)Nc2ccc(-n3nc(C(F)(F)F)cc3C(F)(F)F)cc2)cc1
12,296 to 305 °C,CC(=O)Nc1nc2c(s1)-c1c(cnn1-c1ccc(Cl)cc1)C2
13,123 to 124 °C,O=Cc1ccc(O)c(OCc2ccccc2)c1
14,76 to 82 °C,COc1cc(CCC2(CCc3ccc(O)c(OC)c3)CC(O)=C(Sc3cc(C)c(OCCO)cc3C(C)(C)C)C(=O)O2)ccc1O
15,202 to 204 °C,Cc1c(O)cc2c(c1C)N(C=O)C(C)(C)C2
16,148 to 150 °C,OCCOc1nc(N2CCCCC2)c2nc(OCCO)nc(N3CCCCC3)c2n1
17,80 to 81 °C,Fc1cc(Cl)c2nc(Cl)sc2c1N=C=S
18,217 to 219 °C,Cc1cc(O)nc(C=Cc2ccccc2)n1
19,35 to 36 °C,CCCCCCCCCCCCCCOc1ccccc1CBr
20,182 to 183 °C,Cc1c(NC(=O)CC(C)(C)C)cc2c(c1C)OC(C)(C)C2c1ccccc1 (configuration not stated)
21,107 to 109 °C,O=C(O)c1ccc(CO/N=C/c2cn(Cc3ccccc3)c3ccccc23)cc1Br
22,152 °C,CNC(C)=C(C#N)C(=O)c1ccc(Cl)cc1
23,192 to 195 °C,O=C(Nc1ccc(C(=O)N2CCc3sc(Cc4c[nH]cn4)nc3-c3ccccc32)cc1)c1ccccc1-c1ccccc1
24,166 to 168 °C,CCOC(=O)c1cc(NS(=O)(=O)c2ccc(Cl)nc2)ccc1Oc1cncc(Cl)c1

row,melting point,SMILES
1,75 to 76 °C,CC1(C)CCC(C)(C)c2cc(COc3ccccc3-c3ccccc3C(=O)O)ccc21
2,99 to 101 °C,CC(C)c1cc(OCCCC(=O)OCc2ccccc2)cc2c1C(=O)N(COc1cc(C(F)(F)F)nn1-c1ccccc1)S2(=O)=O
3,242 to 244 °C,Nc1nc(NCCN2CCOCC2)nc2nc(-c3ccco3)nn12
4,81 to 83 °C,CCOC(=O)c1ccc(OCC2CCN(C(=O)OC(C)(C)C)CC2)c(OC)c1
5,123 to 127 °C,O=C1CC(O)CC(C=CC2=C(c3ccc(F)cc3)CC3CCC2C3)O1 (configuration not stated)
6,212 to 214 °C,CC1=NN(c2ccccc2O)C(=O)C1
7,231 to 232 °C,Cc1sc(C(=O)O)c2c1-c1nn(Cc3ccccc3)cc1CC2
8,122 to 124 °C,O=C(CC12CC3CC(CC(C3)C1)C2)Nc1ccccc1Cl
9,102 to 104 °C,CNc1nc(-c2cccc(C#Cc3ccccc3)c2)c2cc(OC)c(OC)cc2n1
10,76 to 77 °C,CC(C)(C)CC(C)(C)c1cc(CO)c(O)c(CO)c1
11,199 to 201 °C,O=C(O)c1ccc(CC2COc3ccc(OCc4ccc5ccccc5n4)cc3C2O)cc1 (configuration not stated)
12,165 to 166 °C,NC(=O)c1c(Cl)cc(Cl)c(OCCCC(=O)O)c1Cl
13,99 to 100 °C,CC(=O)c1cccc(S(=O)(=O)C[N+](=O)[O-])c1
14,202 to 203 °C,COc1c(Cl)cc(Cl)cc1-n1c(=O)[nH]c2ccccc21
15,102 to 103 °C,COc1ccc2c3c(c(=O)oc2c1)CN(CCN1CC2CCCC(C2)C1)CC3
16,105 to 106 °C,O=C1CCc2cc(OCc3ccccc3)ccc21
17,> 300 °C,CC1CN(c2c(F)cc3c(=O)c(C(=O)O)cn(C4CC4)c3c2C#N)CCN1 (configuration not stated)
18,94 to 95 °C,CCCn1c(=Nc2ccccc2)sc2ncccc2c1=O
19,97 °C,O=[N+]([O-])c1cc(Cl)c(Cl)cc1NCCCO
20,110 to 112 °C,Cc1ccnc(-c2cc(CO)ccn2)c1
21,155 to 157 °C,Cc1nnc(C(C)(C)C)c(=O)n1N
22,75 to 77 °C,CCOCc1nc2c(N)nc3ccccc3c2n1NCCCNC(=O)C1CCCC1
23,166 to 169 °C,CC(C)(C)c1cc(OCc2ccc(C#N)cc2)cc(C(C)(C)C)c1O
24,131 to 132 °C,CCCOc1c(OC)cc(C(C#N)CCC(C#N)c2cc(OC)c(OC)c(OC)c2)cc1SC (configuration not stated)

row,melting point,SMILES
1,66 °C,N#CCOc1cccc2c1SCCC2
2,48.1 to 49.8 °C,O=C1CCCCCCC1F (configuration not stated)
3,281 to 283 °C,CSc1ncc2c(n1)N(Cc1ccc(F)c(F)c1)c1ccccc1-n1nnnc1-2
4,152 to 154 °C,COc1ccc(CCc2ccncc2NC(=O)NCc2ccccc2)cc1OC1CCCC1
5,76 to 79 °C,CCCN(CCC)c1c(CC)nn2c(-c3ccc(OC)cc3C)cccc12
6,321 to 322 °C,CCOC(=O)c1cnn2c1nc(NC)c1cnc3c(cnn3CC)c12
7,109 to 110 °C,COC(=O)c1cc(OC)c(OC)c(OC)c1-c1c(C(=O)OC)cc2c(c1OC)OCO2
8,184 °C,COc1ccc(CN(C)CCOc2ccc(NC(=O)c3cccc4c(=O)c5cccc(OC)c5[nH]c34)cc2)cc1OC
9,226 to 237 °C,O=C1[C@H]2Cc3c([nH]c4ccccc34)[C@@H](c3ccc4c(c3)OCO4)N2C(=O)C2CNCCN12 (some centres not stated)
10,231 to 232 °C,COc1cc(C(=O)O)ccc1Cc1cccc2ccc(CCCC(=O)N(C)C)cc12
11,160 to 162 °C,CC(C)CCS(=O)(=O)NC(=O)CCc1cc(C2CC2)nn1Cc1ccc(C(F)(F)F)cc1Cl
12,119 to 120 °C,CC1(C(F)(F)F)CCCN1C(=O)c1c(F)cccc1F (configuration not stated)
13,152 °C,CC(=NNC(=O)c1ccccc1)c1ccccn1
14,102 to 103 °C,COC(=O)c1ccc2c(c1)CC(=O)O2
15,177 °C,Cc1ccc(-c2ccc(C)c(CN3CCN(C(c4ccccc4)c4ccccc4)CC3)c2)cc1
16,188 to 189 °C,O=C1[C@H]2CCC[C@H]2N(C(=O)Cn2cnc3ccccc32)c2ccccc2N1Cc1ccccc1 (relative stereo)
17,106 to 107 °C,O=C(CN1CCN(c2ccc(F)cc2)CC1)CN1CCN(c2ccc(F)cc2)CC1
18,109 to 110 °C,O=S(=O)(NCCc1ccc(CN2CCCCC2)cc1)c1ccc(Br)cc1
19,89 °C,CCOc1ccc2[nH]c(=O)n(CCN(C(C)C)C(C)C)c2c1
20,211 to 213 °C,CCN1C(=O)C(C)(C)c2ccc(C(=O)Nc3ccc(C#N)cc3)cc21
21,247 to 249 °C,O=C(O)COc1ccc(OCCC2CCN(c3ccncc3)CC2)cc1
22,148 to 150 °C,CC(C)[C@H](C[C@H](O)[C@H](C)NC(=O)OC(C)(C)C)C(=O)NCCCn1ccnc1
23,78 to 79 °C,COc1cc(OC)c(F)c(N)c1F
24,152 to 154 °C,CC1(CCC(=O)O)CC(=O)c2ccc(OCc3cccc(OCc4ccc5ccccc5n4)c3)cc2O1 (configuration not stated)

row,melting point,SMILES
1,74 to 76 °C,Cc1ccc(SCc2ccc(OC(F)(F)F)cc2)cc1
2,78 to 80 °C,Fc1ccc2c(C3CCN(CCCOc4ccccc4)CC3)noc2c1
3,89 to 90 °C,O=C(C=Cc1ccncc1)c1cccc(C(F)(F)F)c1
4,99 to 100 °C,COc1cc(N)c(OC)c(OC)c1OC
5,153 to 154 °C,Cc1ncc([N+](=O)[O-])n1CCN1C(=O)CC(C)(C)CC1=O
6,100 °C,CN(C)C=CC(=O)c1cc(Cl)cc(Cl)c1
7,189 to 191 °C,Cc1cc(S(=O)(=O)c2ccc(N)cc2)cc(Br)n1
8,149 to 151 °C,NC(=O)C1C=Cc2ccccc2N1C(=O)c1ccc(F)cc1 (configuration not stated)
9,107 to 110 °C,COC(=O)C1Oc2ccccc2Cc2ccccc2O1
10,93 to 94 °C,CN(C)C1CCN(c2nccc(Oc3ccc(NC(=O)c4cc(F)cc(N5CCCCC5)c4)c4ccccc34)n2)C1 (configuration not stated)
11,166 to 168 °C,Cc1nn(C)c2cc(-c3ccc(F)cc3)nc(-c3ccc4c(c3)OCO4)c12
12,207 to 209 °C,C=C(Cl)COc1ccc(Br)cc1CN(CC)c1ccc(C(=O)O)cn1
13,132 °C,NC(=O)c1ccc(F)c2c1CC(N(CCc1c[nH]c3ccc(F)cc13)CC1CC1)CO2 (configuration not stated)
14,148 to 150 °C,COc1ccc(S(N)(=O)=O)cc1C(=O)Cl
15,116 °C,CC12CCC(C(=Cc3ccc(C=O)cc3)C1=O)C2(C)C (configuration not stated)
16,183 to 185 °C,Cc1cc(Cc2ccccc2)nc(Nc2ccc(-n3cnc(C)n3)c(F)c2)n1
17,290 °C,O=C(Nc1ccc(F)cc1F)c1nc(Cl)c(Cl)[nH]1
18,214 to 216 °C,CCCCc1nc2c(N)nc3cc(-c4ccccc4)ccc3c2n1CCCS(C)(=O)=O
19,135 to 136 °C,O=C(c1cccc([N+](=O)[O-])c1)c1ccc(Oc2ccccc2)c([N+](=O)[O-])c1
20,282 to 284 °C,COc1ccc2cc3c(c(-c4ccc(OC(F)(F)F)cc4)c2c1)C(=O)NC3=O
21,106 °C,N#Cc1ccc(C#N)c(Sc2ccccc2)c1
22,95 °C,CC(=O)SCC(C(=O)NC(C)C(=O)OCc1ccccc1)C1CCc2ccccc21 (configuration not stated)

row,SMILES,melting point
1,CN1[C@@H]2CC[C@H]1[C@H](CO)[C@H](c1ccc(Cl)c(Cl)c1)C2,81 to 86 °C
2,CCCCCCCCCN(c1ccccc1)P(=O)(O)O,64 to 65 °C
3,Clc1ccc(CN2CCCCC2)cn1,48 °C
4,CCCc1c(C(=O)C(C)C)c2ccc(C(=O)OC)cc2n1Cc1c(Cl)cccc1Cl,130 to 132 °C
5,c1ccc(N2c3ccccc3CC2C2=NCCN2)cc1 (configuration not stated),141 to 144 °C
6,O=C1c2ccc(Cl)cc2CC1Cl (configuration not stated),63 to 66 °C
7,CCCCCc1cc(O)c2c3c(c(=O)oc2c1)SC(C)C3 (configuration not stated),188 to 190 °C
8,O=C(Nc1cnc2[nH]ccc2c1)c1cc2cc(F)ccc2n1Cc1cccc(F)c1,266 to 267 °C
